Assay results: patent US20080317857A1, “V-Atpase Inhibitors of Use in the Treatment of Septic Shock” (Brane Discovery S.r.l., priority 2005, published 2008)
Where two headings read alike, the source gives them in different places.

Tests used:
[1] = system: NADPH-oxidase activation (H2O2 release) in PMNs; assay: Respiratory burst (H2O2 assay) in PMNs; type: cell-based, human; conditions: for inhibition at 25 µM / inhibition at 50 µM / inhibition at 100 µM: Homo sapiens, read-out: Inhibition of H2O2 release induced by PMA in PMNs (% PMA control); for inhibition at 25 µM: [cpd] 25 μM; for inhibition at 50 µM: [cpd] 50 μM; for inhibition at 100 µM: [cpd] 100 μM
Procedure: (§1) NADPH-oxidase activation was measured as induction of H2O2 release (derived from dismutation of O2^−) triggered in PMNs and monocytes by PMA (200 ng/ml). Briefly, PMNs and monocytes were pretreated at 37° C. for 30-60 min with test compound at different concentrations, and stimulated with phorbol 12-myristate 13-acetate (PMA, 200 ng/ml) dissolved in 0.5 ml of a standard reaction mixture. Release of H2O2 was evaluated in real time at time points of 5 min by using a microplate fluorescence reader (Perkin-Elmer). Results are expressed as nmoles of H2O2 released over time by 10^6 cells. Shown are dose-response curves of inhibitory effect on H2O2 release over 60 min.

[2] = system: NADPH-oxidase activation (H2O2 release) in Monocytes; assay: Respiratory burst (H2O2 assay) in monocytes; type: cell-based, human; conditions: for inhibition at 25 µM / inhibition at 50 µM / inhibition at 100 µM: Homo sapiens, Monocyte, read-out: Inhibition of H2O2 release induced by PMA in Monocytes (% PMA control); for inhibition at 25 µM: [cpd] 25 μM; for inhibition at 50 µM: [cpd] 50 μM; for inhibition at 100 µM: [cpd] 100 μM
Procedure: as §1

V-ATPase = conditions: cited from earlier work

## CCN1C(=O)C=CC1=O [NEM, N-ethylmaleimide]
[1]; 0.5 h, 30 min
  inhibition at 25 µM: 100%
  inhibition at 50 µM: 100%
  inhibition at 100 µM: 100%
[1]; 40 min, 40 min
  inhibition at 25 µM: 100%
  inhibition at 50 µM: 100%
  inhibition at 100 µM: 100%
[1]; 50 min, 50 min
  inhibition at 25 µM: 100%
  inhibition at 50 µM: 100%
  inhibition at 100 µM: 100%
[1]; PMA 200 ng/ml
  respiratory burst / NADPH-oxidase activation induced by PMA in PMNs (in words): completely blocked
[2]; 0.5 h, 30 min
  inhibition at 25 µM: 100%
  inhibition at 50 µM: 100%
  inhibition at 100 µM: 100%
[2]; 40 min, 40 min
  inhibition at 25 µM: 100%
  inhibition at 50 µM: 100%
  inhibition at 100 µM: 100%
[2]; 50 min, 50 min
  inhibition at 25 µM: 100%
  inhibition at 50 µM: 100%
  inhibition at 100 µM: 100%
[2]; PMA 200 ng/ml
  respiratory burst / NADPH-oxidase activation induced by PMA in monocytes (in words): completely blocked
V-ATPase
  concentrations generally active in inhibiting V-ATPase: > 25 µM

## C/C=C/[C@H]1O[C@@](O)([C@@H](C)[C@H](O)[C@H](C)[C@H]2OC(=O)/C(OC)=C/C(C)=C/[C@@H](C)[C@@H](O)[C@@H](CC)[C@@H](O)[C@H](C)C/C(C)=C/C=C/[C@@H]2OC)C[C@@H](O[C@H]2C[C@@H](O)[C@H](OC(N)=O)[C@@H](C)O2)[C@@H]1C [Concanamycin A1, Concanamycin A]
[1]; 10 nM concentration
  inhibition of the release of oxygen radicals in PMNs: 58%
[1]; [cpd] 0.0005 μM, 30 min
  Inhibition of H2O2 release induced by PMA in PMNs (% PMA control): 33.4%
[1]; [cpd] 0.0005 μM, 40 min
  Inhibition of H2O2 release induced by PMA in PMNs (% PMA control): 35.2%
[1]; [cpd] 0.0005 μM, 50 min
  Inhibition of H2O2 release induced by PMA in PMNs (% PMA control): 38.9%
[1]; [cpd] 0.001 μM, 30 min
  Inhibition of H2O2 release induced by PMA in PMNs (% PMA control): 36.2%
[1]; [cpd] 0.001 μM, 40 min
  Inhibition of H2O2 release induced by PMA in PMNs (% PMA control): 45.0%
[1]; [cpd] 0.001 μM, 50 min
  Inhibition of H2O2 release induced by PMA in PMNs (% PMA control): 56.4%
[1]; [cpd] 0.010 μM, 30 min
  Inhibition of H2O2 release induced by PMA in PMNs (% PMA control): 50.2%
[1]; [cpd] 0.010 μM, 40 min
  Inhibition of H2O2 release induced by PMA in PMNs (% PMA control): 58.3%
[1]; [cpd] 0.010 μM, 50 min
  Inhibition of H2O2 release induced by PMA in PMNs (% PMA control): 58.3%
[2]; 10 nM concentration
  inhibition of the release of oxygen radicals in monocytes: 50%
[2]; [cpd] 0.0005 μM, 30 min
  Inhibition of H2O2 release induced by PMA in Monocytes (% PMA control): 17.0%
[2]; [cpd] 0.0005 μM, 40 min
  Inhibition of H2O2 release induced by PMA in Monocytes (% PMA control): 26.3%
[2]; [cpd] 0.0005 μM, 50 min
  Inhibition of H2O2 release induced by PMA in Monocytes (% PMA control): 33.3%
[2]; [cpd] 0.001 μM, 30 min
  Inhibition of H2O2 release induced by PMA in Monocytes (% PMA control): 35.7%
[2]; [cpd] 0.001 μM, 40 min
  Inhibition of H2O2 release induced by PMA in Monocytes (% PMA control): 43.4%
[2]; [cpd] 0.001 μM, 50 min
  Inhibition of H2O2 release induced by PMA in Monocytes (% PMA control): 50.2%
V-ATPase; literature
  inhibition of V-ATPase (in words): very potent and highly specific inhibitors
